From PubChem BioAssay (NCI) come the findings set out here.

Test systems include HOP-92 NSCLC; A549 NSCLC; M14 melanoma; SK-MEL-5 melanoma; SNB-19 CNS; NCI/ADR-RES ovarian; NCI-H226 lung; BT-549 breast; MCF7 breast; TK-10 renal.
Holding throughout (experiment): NCI anticancer screen, dose series, 48 h

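Cultured in 96-well plates, cells were exposed to test compound for 48 hours across five concentrations. Abbreviation: GI50, concentration required for 50% inhibition of growth. TGI marks complete inhibition of growth.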

Regarding `O=C(N/N=C/C=C/c1ccc([N+](=O)[O-])o1)c1cc2ccccc2cc1O`, the GI50 in the assay on HOP-92 NSCLC was 2.08 µM; with A549 NSCLC it was 2.75 µM; with M14 melanoma it was 0.758 µM; with SK-MEL-5 melanoma it was 0.349 µM; in the assay on SNB-19 CNS, 3.2 µM; with NCI/ADR-RES ovarian, 1.36 µM. Moreover, the GI50 in the assay on NCI-H226 lung is 1.64 µM; with BT-549 breast, 1.3 µM; in the assay with MCF7 breast it was 0.711 µM; in the assay with TK-10 renal, 2.44 µM. The TGI came to 5.52 µM with HOP-92 NSCLC; 12.2 µM with A549 NSCLC; 2.15 µM in the assay with M14 melanoma; 1.48 µM in the assay on SK-MEL-5 melanoma; 24.4 µM in the assay on SNB-19 CNS; 7.27 µM with NCI/ADR-RES ovarian. The TGI in the assay on NCI-H226 lung is 4.78 µM; in the assay on BT-549 breast it was 3.02 µM; with MCF7 breast it was 3.54 µM; with TK-10 renal, 8.13 µM.
On to `CC1CCCC2(CC[N+](C)(CCC[N+](C)(C)C)CC2)C1` (stereo not given), for which the TGI in the assay with HOP-92 NSCLC, in the assay on A549 NSCLC, in the assay with M14 melanoma, in the assay on SK-MEL-5 melanoma, in the assay with SNB-19 CNS and with NCI/ADR-RES ovarian was over 100 µM each time. Besides, the TGI with NCI-H226 lung, in the assay with BT-549 breast, in the assay on MCF7 breast and in the assay on TK-10 renal was over 100 µM throughout.
With `COc1ccc(CC(N)c2ccc(OC)cc2)cc1` (stereo not given), the TGI in the assay with HOP-92 NSCLC, in the assay with A549 NSCLC, with M14 melanoma, with SK-MEL-5 melanoma, with SNB-19 CNS and with NCI/ADR-RES ovarian was over 100 µM throughout. Further, the TGI in the assay with NCI-H226 lung, in the assay on BT-549 breast, with MCF7 breast and with TK-10 renal was over 100 µM each time.
As to `COc1cccc(CCN2CCN(CCCc3ccccc3)CC2)c1`, the TGI in the assay on HOP-92 NSCLC is 64.4 µM; with A549 NSCLC it was over 100 µM; in the assay on M14 melanoma, 60.6 µM; with SK-MEL-5 melanoma it was 40.6 µM; with SNB-19 CNS, over 100 µM; in the assay with NCI/ADR-RES ovarian, over 100 µM. The TGI in the assay with NCI-H226 lung, in the assay with BT-549 breast, in the assay with MCF7 breast and in the assay on TK-10 renal was over 100 µM throughout.
For the molecule `CN(C)c1ccc(/C(F)=C(F)/C(F)=C(F)/C(F)=C(\F)c2ccc(Br)cc2)cc1`, the TGI was over 100 µM in the assay on HOP-92 NSCLC; over 100 µM in the assay with A549 NSCLC; over 69.7 µM in the assay with M14 melanoma; over 100 µM in the assay with SK-MEL-5 melanoma; over 78.5 µM in the assay on SNB-19 CNS; 22.4 µM with NCI/ADR-RES ovarian. Further, the TGI in the assay on NCI-H226 lung, in the assay with BT-549 breast, in the assay on MCF7 breast and with TK-10 renal was over 100 µM each time.
As to `CCN(CC)N1C(=O)[N+](CC)(CC)N=C1[O-]`, the TGI in the assay on HOP-92 NSCLC, in the assay with A549 NSCLC, in the assay on M14 melanoma, with SK-MEL-5 melanoma, with SNB-19 CNS and with NCI/ADR-RES ovarian was over 100 µM each time. Moreover, the TGI in the assay with NCI-H226 lung, with BT-549 breast, with MCF7 breast and in the assay with TK-10 renal was over 100 µM throughout.
With `Cc1ccc(/C(O)=C/c2nc3ccccc3sc2=O)c(C)c1`, the TGI in the assay on HOP-92 NSCLC was 82.4 µM; in the assay with A549 NSCLC, over 100 µM; in the assay on M14 melanoma it was over 100 µM; in the assay on SK-MEL-5 melanoma, over 100 µM; in the assay with SNB-19 CNS, over 100 µM; in the assay on NCI/ADR-RES ovarian it was over 100 µM. The TGI in the assay with NCI-H226 lung was over 100 µM; with BT-549 breast, 79.6 µM; in the assay with MCF7 breast, over 100 µM; in the assay on TK-10 renal, over 100 µM.
`CC(C)=NN/C(=N\S(=O)(=O)c1ccc(Oc2cccc(Cl)c2C#N)cc1)Nc1ccc(Cl)cc1`: the TGI in the assay on HOP-92 NSCLC, in the assay with A549 NSCLC, in the assay on M14 melanoma, in the assay on SK-MEL-5 melanoma, with SNB-19 CNS and in the assay on NCI/ADR-RES ovarian was over 100 µM throughout. Moreover, the TGI in the assay with NCI-H226 lung, with BT-549 breast, in the assay on MCF7 breast and in the assay with TK-10 renal was over 100 µM in each case.
On to `CCCC(=O)NC(Nc1ccc(S(=O)(=O)Nc2cc(C)on2)cc1)(C(=O)OCC)C(F)(F)F` (stereo not given), for which the TGI in the assay with HOP-92 NSCLC, with A549 NSCLC, in the assay on M14 melanoma, in the assay with SK-MEL-5 melanoma, in the assay with SNB-19 CNS and in the assay with NCI/ADR-RES ovarian was over 100 µM throughout. Further, the TGI in the assay with NCI-H226 lung, in the assay on BT-549 breast, in the assay with MCF7 breast and in the assay with TK-10 renal was over 100 µM in each case.
As for `NS(=O)(=O)c1ccc(/C=C/c2ccc(F)cc2)cc1`, the GI50 in the assay on HOP-92 NSCLC was 33.2 µM; in the assay with A549 NSCLC it was 8.93 µM; with NCI-H226 lung it was 7.97 µM; in the assay with BT-549 breast, 0.205 µM. Besides, the TGI with HOP-92 NSCLC is 77.6 µM; with A549 NSCLC it was 37.1 µM; with M14 melanoma, over 100 µM; with SNB-19 CNS, over 100 µM; in the assay on NCI/ADR-RES ovarian, over 100 µM; with NCI-H226 lung it was 27 µM. Also, the TGI was 4.92 µM in the assay on BT-549 breast, over 100 µM in the assay on MCF7 breast and over 100 µM with TK-10 renal.
On to `CC(C)CNc1nc2ncnc(N)c2[nH]1`, for which the TGI in the assay on HOP-92 NSCLC, with A549 NSCLC, in the assay on M14 melanoma, in the assay with SK-MEL-5 melanoma, in the assay with SNB-19 CNS and in the assay with NCI/ADR-RES ovarian was over 100 µM in each case. For the same molecule, the TGI in the assay with NCI-H226 lung, in the assay on BT-549 breast, with MCF7 breast and in the assay with TK-10 renal was over 100 µM each time.
Regarding `OCC(O)C(O)C(O)C(O)c1nc2ccc(Cl)cc2[nH]1` (stereo not given), the TGI with HOP-92 NSCLC, with A549 NSCLC, in the assay with M14 melanoma, with SK-MEL-5 melanoma, with SNB-19 CNS and with NCI/ADR-RES ovarian was over 100 µM throughout. For the same molecule, the TGI in the assay with NCI-H226 lung, in the assay on BT-549 breast, with MCF7 breast and in the assay on TK-10 renal was over 100 µM throughout.
As for `Cc1ccc(OCC2OC(n3cnc4c(Cl)nc(N)nc43)CC2Oc2ccc(C)cc2)cc1` (stereo not given), the TGI in the assay on HOP-92 NSCLC is 51.7 µM; in the assay with A549 NSCLC, over 100 µM; in the assay on M14 melanoma, over 100 µM; with SK-MEL-5 melanoma, over 100 µM; in the assay with SNB-19 CNS, over 100 µM; in the assay on NCI/ADR-RES ovarian, over 75.5 µM. The TGI in the assay with NCI-H226 lung was over 100 µM; with BT-549 breast, over 100 µM; in the assay with MCF7 breast it was over 13.3 µM; with TK-10 renal it was over 100 µM.
Take `Cc1cc(F)ccc1S(=O)(=O)Nc1cc(-c2c(O)ccc3ccccc23)c(O)c2ccccc12`: the GI50 with HOP-92 NSCLC is 0.292 µM; in the assay on A549 NSCLC, 3.76 µM; with M14 melanoma, 2.06 µM; in the assay on SK-MEL-5 melanoma, 1.77 µM; in the assay on NCI/ADR-RES ovarian, 3.05 µM; in the assay on NCI-H226 lung, 2.85 µM. In addition, the values for the GI50 in the assay with BT-549 breast, with MCF7 breast and with TK-10 renal were 3.04 µM, 2.42 µM and 5.87 µM, respectively. The TGI worked out at 2.82 µM in the assay with HOP-92 NSCLC; 15.5 µM in the assay with A549 NSCLC; 5.4 µM with M14 melanoma; 3.52 µM in the assay with SK-MEL-5 melanoma; 13.6 µM with NCI/ADR-RES ovarian; 14.5 µM in the assay with NCI-H226 lung. Further, the TGI came to 10.8 µM with BT-549 breast, 25.6 µM in the assay with MCF7 breast and 17.6 µM with TK-10 renal.
Regarding `CC(=C(c1ccccc1)c1ccccc1)N1C(=O)CC(=O)N1C`, the TGI in the assay on HOP-92 NSCLC, in the assay on A549 NSCLC, in the assay with M14 melanoma, in the assay with SK-MEL-5 melanoma, in the assay on SNB-19 CNS and with NCI/ADR-RES ovarian was over 100 µM each time. The TGI in the assay on NCI-H226 lung, in the assay with BT-549 breast, in the assay with MCF7 breast and in the assay on TK-10 renal was over 100 µM each time.
With `Cc1cccc(Nc2nn3c(=O)c4c5c(sc4nc3s2)CCCC5)c1`, the TGI in the assay with HOP-92 NSCLC, in the assay with A549 NSCLC, with M14 melanoma, in the assay on SK-MEL-5 melanoma, in the assay with SNB-19 CNS and in the assay with NCI/ADR-RES ovarian was over 100 µM in each case. In addition, the TGI is over 100 µM in the assay on NCI-H226 lung, 68.7 µM in the assay on BT-549 breast, over 100 µM in the assay with MCF7 breast and over 100 µM with TK-10 renal.
For `OCCO/N=C1\C(c2c(O)[nH]c3ccccc23)=Nc2ccccc21`, the TGI in the assay with HOP-92 NSCLC, in the assay with A549 NSCLC, in the assay on M14 melanoma, in the assay on SK-MEL-5 melanoma, in the assay with SNB-19 CNS and in the assay on NCI/ADR-RES ovarian was over 100 µM in each case. Moreover, the TGI in the assay with NCI-H226 lung, in the assay with BT-549 breast, in the assay with MCF7 breast and with TK-10 renal was over 100 µM throughout.
With `N#CC1(C#N)NC(c2cccs2)C(C#N)(C#N)NC1c1cccs1` (stereo not given), the TGI is 78.7 µM in the assay with HOP-92 NSCLC; over 100 µM in the assay on A549 NSCLC; over 100 µM in the assay on M14 melanoma; 74.2 µM in the assay with SK-MEL-5 melanoma; over 100 µM in the assay with SNB-19 CNS; over 100 µM in the assay with NCI/ADR-RES ovarian. Moreover, the TGI is over 100 µM in the assay with NCI-H226 lung, 57.4 µM with BT-549 breast, 51.8 µM in the assay with MCF7 breast and over 100 µM in the assay with TK-10 renal.
On to `C[N+](C)(C)c1ccc(C(N)C(=O)O)cc1` (stereo not given), for which the TGI in the assay with HOP-92 NSCLC, in the assay on M14 melanoma, in the assay on SK-MEL-5 melanoma, in the assay with SNB-19 CNS, with NCI/ADR-RES ovarian and with NCI-H226 lung was over 100 µM each time. Further, the TGI with BT-549 breast, with MCF7 breast and in the assay with TK-10 renal was over 100 µM in each case.
